Reference: publication PMC7044196, “B38-CAP is a bacteria-derived ACE2-like enzyme that suppresses hypertension and cardiac dysfunction” (Nature Communications, 2020)

Columns and labels:
[1] = system: T1, B38-CAP; experiment: fluorogenic peptide hydrolysis assay; type: biochemical, Paenibacillus sp. B38; conditions: pH 7.5 HEPES, 0.3 M NaCl, 0.01% Triton X-100, 37 °C, 30 min; fluorogenic ACE2 substrate
T1 construct: no tag mentioned
Excerpt: fluorogenic peptide hydrolysis assay on B38-CAP

[2] = target: T2, recombinant human ACE2 (rhACE2) (Homo sapiens, UniProt Q9BYF1); experiment: fluorogenic peptide hydrolysis assay; type: biochemical
T2 construct: recombinant human ACE2 from Calbiochem for the constants
Excerpt: fluorogenic peptide hydrolysis assay on recombinant human ACE2 (rhACE2)

T2 sequence (Q9BYF1 18-740 limits assumed): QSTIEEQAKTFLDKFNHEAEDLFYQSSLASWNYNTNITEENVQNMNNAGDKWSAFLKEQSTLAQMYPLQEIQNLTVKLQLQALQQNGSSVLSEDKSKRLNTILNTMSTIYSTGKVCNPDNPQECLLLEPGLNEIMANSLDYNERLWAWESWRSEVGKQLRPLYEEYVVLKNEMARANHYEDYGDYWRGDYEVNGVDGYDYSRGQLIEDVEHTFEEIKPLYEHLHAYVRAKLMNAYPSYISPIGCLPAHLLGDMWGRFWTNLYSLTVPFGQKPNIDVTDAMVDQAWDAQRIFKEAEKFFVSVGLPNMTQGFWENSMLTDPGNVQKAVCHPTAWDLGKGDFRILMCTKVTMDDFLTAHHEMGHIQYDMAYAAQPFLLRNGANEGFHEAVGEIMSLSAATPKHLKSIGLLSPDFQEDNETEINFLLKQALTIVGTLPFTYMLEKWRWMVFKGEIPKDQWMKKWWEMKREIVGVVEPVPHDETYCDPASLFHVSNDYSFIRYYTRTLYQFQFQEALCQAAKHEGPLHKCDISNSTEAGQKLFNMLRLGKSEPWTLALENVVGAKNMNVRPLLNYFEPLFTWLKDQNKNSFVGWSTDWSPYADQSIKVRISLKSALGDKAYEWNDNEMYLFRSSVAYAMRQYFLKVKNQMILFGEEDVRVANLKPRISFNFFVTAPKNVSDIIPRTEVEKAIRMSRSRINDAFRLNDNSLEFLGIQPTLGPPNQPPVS

IC50 [1]: 710 ± 173 pM
IC50 [2]: 340 ± 50.1 pM
SMILES: CC(C)C[C@H](N[C@@H](Cc1cncn1Cc1cc(Cl)cc(Cl)c1)C(=O)O)C(=O)O [MLN-4760]
